Results on seven molecules are retold here after US20250288647A1, “ANGIOGENESIS INHIBITING PEPTIDE AND USE THEREOF” (SEOUL NATIONAL UNIVERSITY HOSPITAL, priority 2021, published 2025).

The test system of experiment [1] is VEGF receptor. In words: Real-time degree of binding using BLtz instrument (ForteBio). The settings on record: FIGS. 2A to 2I. From the text: (§1) FIG. 2 is a view showing the results of confirming the degree of binding of the peptides using BLtz system according to an exemplary embodiment of the present invention to a VEGF receptor and a PDGF receptor. FIG. 2A is a view showing the results of Peptides 1 to 3, FIG. 2B is a view showing the results of Peptide 8, FIG. 2C is a view showing the results of Peptide 9, FIG. 2D is a view showing the results of Peptide 10, FIG. 2E is a view showing the results of Peptide 11, FIG. 2F is a view showing the results of Peptide 12, FIG. 2G is a view showing the results of Peptide 13, FIG. 2H is a view showing the results of Peptide 14, and FIG. 2I is a view showing the results of Peptide 15.
(§2) In addition, the degree of binding between the peptides and the receptors was confirmed in real time using a BLtz instrument (ForteBio).

Experiment [2] deals with PDGF receptor. Described as above. The settings on record: FIGS. 2A to 2I.
Excerpt: as §1, §2

Experiment [3] deals with VEGF receptor. Put plainly: Surface plasmon resonance (SPR) binding test, Biacore T200. The settings on record: VEGF receptor 200 ng/mL, CM5 chip. Here is the method:
(§3) It was confirmed that the prepared peptides have binding affinity to VEGF receptors and PDGF receptors using surface plasmon resonance (SPR). More specifically, SPR was performed using a Biacore T200 (GE Healthcare) device and a CM5 chip (GE Healthcare, Cat #. BR-1005-30), and the obtained results were analyzed using BIAevaluation software version 3.0 (GE Healthcare). For a binding test, a concentration of 200 ng/mL was used for the VEGF receptor and a concentration of 400 ng/ml was used for the PDGF receptor.

Experiment [4] has as its system PDGF receptor. Described as above. The conditions noted are these: PDGF receptor 400 ng/ml, CM5 chip. Here is the method: as §3
A further experiment concerns CD31. In words: CD31 staining of cancer tissue sections (angiogenesis in cancer tissue). The class given is in vivo, NSG mice. The settings on record: tissue sections of cancer tissue obtained at 14 days, FIG. 4. Here is the method: (§4) As a control, an equal amount of phosphate buffered saline (PBS) was mixed with Matrigel and injected. After the mice were euthanized 14 days later, cancer tissue was obtained and the size of cancer was measured. All animal handling and procedures were performed in accordance with research protocols approved by the Animal Care and Use Committee of Seoul National University Hospital. Thereafter, in all experiments, statistical significance between two groups was confirmed by a Student's t-test, and when P<0.05, it was determined to be statistically significant. Then, the obtained cancer tissue was fixed using a 4% paraformaldehyde solution, embedded using paraffin, and then cut to a thickness of […] to prepare a tissue section. The prepared tissue section was then stained using a CD31 antibody (Abcam) that specifically binds to CD31, a blood vessel-specific gene, and DAPI.

Experiment [5] has as its system MDA-MB-231 breast cancer cell line. Put plainly: Anticancer effect: MDA-MB-231 cells mixed with peptide and Matrigel injected subcutaneously, size of cancer. It counts as in vivo, NSG mice. The settings on record: 14 days after subcutaneous injection with 2×10^6 MDA-MB-231 cells and Matrigel, compared to PBS control, FIG. 3. The procedure: as §4
Experiment [6] relates to mice with oxygen-induced retinopathy. In words: Oxygen-induced retinopathy mice, intravitreal injection, isolectin staining, area of neovascular tufts. The class given is in vivo. The conditions noted are these: 1 μL intravitreal, right eye, 5 days after injection, FIGS. 5 and 6. The procedure:
Two days later, for the prepared mice with retinopathy, 1 μL of phosphate buffer solution, Peptide 1, Peptide 4, and KAI1 protein (CD82), which is known to bind to VEGF and PDGF, were intravitreally injected to the right eye of each of the mice, respectively. Mice were euthanized 5 days after injection and enucleated eyes were prepared. The prepared enucleated eye was immunostained using 5 μg/mL Alexa Fluor 594 isolectin GS-IB4 conjugate (Invitrogen), and then observed using a fluorescence microscope. Thereafter, the area of neovascular tufts was quantified as a percentage of the total retina using Image J (NIH).

As to NHPEDWPVYQEGC [Peptide 15], in the experiment with VEGF receptor [1], the “degree of binding to the VEGF receptor (BLtz)” value is “stably bound”. The “degree of binding to the PDGF receptor (BLtz)” value in the experiment on PDGF receptor [2] is listed as “stably bound”. The “binding to the VEGF receptor (SPR)” value in the experiment on VEGF receptor [3] is “bound strongly”. The “binding to the PDGF receptor (SPR)” value in the experiment on PDGF receptor [4] is listed as “bound strongly”.

NRPEVTAPASCEVKGAAANS [Peptide 4]: the “CD31 antibody staining (fluorescence intensity) in cancer tissue” value in the experiment with CD31 was “remarkably high”. In experiment [5], the size of cancer entry was “size of cancer was remarkably increased”. Moreover, in experiment [6], the “angiogenesis inhibitory effect in retinopathy (area of neovascular tufts as percentage of total retina)” value is “did not show an angiogenesis inhibitory effect”.

NRPEVTAPASCEVKGEEDNS [Peptide 2]: the “degree of binding to the VEGF receptor (BLtz)” value with VEGF receptor [1] is “weak binding affinity”. Besides, the “degree of binding to the PDGF receptor (BLtz)” value with PDGF receptor [2] is “weak binding affinity”. The “binding to the VEGF receptor (SPR)” value with VEGF receptor [3] was “bound weakly”. The “binding to the PDGF receptor (SPR)” value with PDGF receptor [4] is “bound weakly”.

As to NRPEVTYPCSCEVKGAAANS [Peptide 3], the “degree of binding to the VEGF receptor (BLtz)” value in the experiment with VEGF receptor [1] is “weak binding affinity”. For the same molecule, the “degree of binding to the PDGF receptor (BLtz)” value in the experiment on PDGF receptor [2] is recorded as “weak binding affinity”.

In the case of NRPEVTYPCSCEVKGEEDNS [Peptide 1], the “CD31 antibody staining (fluorescence intensity) in cancer tissue” value in the experiment on CD31 is “almost no portion stained with a CD31 antibody”. The “degree of binding to the VEGF receptor (BLtz)” value in the experiment with VEGF receptor [1] is recorded as “highest binding affinity”. Besides, the “degree of binding to the PDGF receptor (BLtz)” value with PDGF receptor [2] is “highest binding affinity”. The size of cancer entry in experiment [5] is listed as “size of cancer was inhibited compared to the control”. For the same molecule, the “angiogenesis inhibitory effect in retinopathy (area of neovascular tufts as percentage of total retina)” value in experiment [6] is “angiogenesis inhibitory effect similar to that of the comparative group administered the KAI1 protein”. The “binding to the VEGF receptor (SPR)” value with VEGF receptor [3] is listed as “bound strongly”. The “binding to the PDGF receptor (SPR)” value in the experiment with PDGF receptor [4] is given as “bound strongly”.

Turning to SFYNWTDNAELMN [Peptide 9], the “degree of binding to the VEGF receptor (BLtz)” value in the experiment on VEGF receptor [1] is listed as “stably bound”. Moreover, the “degree of binding to the PDGF receptor (BLtz)” value in the experiment on PDGF receptor [2] is given as “stably bound”. For the same molecule, in the experiment on VEGF receptor [3], the “binding to the VEGF receptor (SPR)” value is on record as “bound strongly”. Moreover, the “binding to the PDGF receptor (SPR)” value with PDGF receptor [4] is on record as “bound strongly”.

B1: KAI1 protein: KAI1 protein (CD82), which is known to bind to VEGF and PDGF; comparative group (protein, UniProt P27701 1-267, looked up)
CD82 antigen: MGSACIKVTKYFLFLFNLIFFILGAVILGFGVWILADKSSFISVLQTSSSSLRMGAYVFIGVGAVTMLMGFLGCIGAVNEVRCLLGLYFAFLLLILIAQVTAGALFYFNMGKLKQEMGGIVTELIRDYNSSREDSLQDAWDYVQAQVKCCGWVSFYNWTDNAELMNRPEVTYPCSCEVKGEEDNSLSVRKGFCEAPGNRTQSGNHPEDWPVYQEGCMEKVQAWLQENLGIILGVGVGVAIIELLGMVLSICLCRHVHSEDYSKVPKY
B1: in experiment [6], the “angiogenesis inhibitory effect in retinopathy (area of neovascular tufts as percentage of total retina)” value is reported as “angiogenesis inhibitory effect”.
